In US7507547B2, “Screening assays for antioxidants and antiproliferative compounds” (University of Massachusetts, priority 2004, dated 2009):
Where two headings read alike, the source gives them in different places.

Legend:
[1] = target: T1, NTR1 (Homo sapiens, UniProt P30989); assay: ^125I-NT binding to PC3 cells; settings: for Effect on NT binding in PC3 cells: n=3; for NT Binding Assay: ability to enhance NT binding in PC3 cells; for NT Binding Efficacy % increase: maximal % increase in NT binding observed for each agent
T1 construct: endogenous in cells; host or cells: PC3 cells (ATCC)
T1 sequence (P30989 whole entry): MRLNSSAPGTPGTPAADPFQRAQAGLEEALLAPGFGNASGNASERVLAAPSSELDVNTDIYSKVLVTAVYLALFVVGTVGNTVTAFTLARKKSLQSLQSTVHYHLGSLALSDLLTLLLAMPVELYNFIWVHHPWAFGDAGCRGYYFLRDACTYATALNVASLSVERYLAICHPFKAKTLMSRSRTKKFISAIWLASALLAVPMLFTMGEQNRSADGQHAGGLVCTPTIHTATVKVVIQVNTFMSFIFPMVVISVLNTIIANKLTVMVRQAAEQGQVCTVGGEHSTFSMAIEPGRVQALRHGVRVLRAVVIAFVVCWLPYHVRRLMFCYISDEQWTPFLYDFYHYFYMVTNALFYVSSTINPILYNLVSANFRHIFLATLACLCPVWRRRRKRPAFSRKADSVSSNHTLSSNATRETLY

[2] = parameters: key: +: All of the compounds listed in Table 12 were anticancerous; settings: from anticancer literature; cited from earlier work
[3] = tested on: NT-induced inositol phosphate (IP) formation in PC3 cells; assay: NT-induced IP formation in PC3 cells; type: cell-based; settings: for IC50: Homo sapiens, PC-3; for IP Formation Efficacy (% decrease): maximal % decrease in NT-induced IP formation
[4] = tested on: PC3 cells; assay: NT-induced proliferation of PC3 cells (^3H-thymidine); type: cell-based; settings: Homo sapiens, PC-3; 24 hours, 10 nM NT; read-out: IC50 for inhibition of NT-induced proliferation
[5] = general reducing agents and antioxidants
[6] = [agent] giving 50% decrease in IP formation

In the case of `O=C1O[C@H]([C@@H](O)CO)C(O)=C1O` [ascorbic acid], the “Effect on NT binding” value [1, 5] is reported as “not much affected” and the “Effect on NT binding in PC3 cells” value ([1]; used at 20-180 μM) is reported as “ineffective”.
For `N.N.[Cl][Pt][Cl]` [cis-platin], the “NT Binding Assay” value [1] is given as “+” and the Anti-cancer [2] is given as “+”.
In the case of `CC/C(=C(/CC)c1ccc(O)cc1)c1ccc(O)cc1` [diethylstilbesterol], the “NT Binding Assay” value [1] is given as “+” and the Anti-cancer [2] is given as “+”.
With `O=c1oc2c(O)c(O)cc3c(=O)oc4c(O)c(O)cc1c4c23` [ellagic acid] the “Effect on NT binding in PC3 cells” value ([1]; used at 10-100 μM) was “without effect”.
For `CC(C)=CCCC(C)=CCCC(C)=CCO` [farnesol], the “NT Binding Assay” value [1] is listed as “+” and the Anti-cancer [2] is listed as “+”.
For `CCOC(=O)C1=C(C)NC(C)=C(C(=O)OC)C1c1cccc(Cl)c1Cl` (centres unmarked) [felodipine], the IC50 [3, 6] was 1000 nM.
With `Fc1ccc(C(c2ccc(F)cc2)N2CCN(C/C=C/c3ccccc3)CC2)cc1` [flunarizine] the “NT Binding Efficacy % increase” value [1] was 45 % increase.
In the case of `O=c1c(-c2ccc(O)cc2)coc2cc(O)cc(O)c12` [genistein], the “NT Binding Assay” value [1] is given as “+” and the Anti-cancer [2] is given as “+”.
For `N[C@@H](CCC(=O)N[C@@H](CS)C(=O)NCC(=O)O)C(=O)O` [glutathione], the “Effect on NT binding in PC3 cells” value ([1]; used at 1-3 mM) was “without effect”.
With `O=c1cc(-c2ccc(O)c(O)c2)oc2cc(O)cc(O)c12` [luteolin] the IC50 [3, 6] was 38000 nM, the EC50 ([1]; [agent] giving 75% increase in NT binding) was 40000 nM and the “NT Binding Assay” value [1] was “+”. For the same compound, the Anti-cancer [2] was “+”.
With `Clc1ccc(COC(Cn2ccnc2)c2ccc(Cl)cc2Cl)c(Cl)c1` (centres unmarked) [miconazole] the “IP Formation Efficacy (% decrease)” value [3] was 54 % decrease.
Compound `COC(=O)C1=C(C)NC(C)=C(C(=O)OCCN(C)Cc2ccccc2)C1c1cccc([N+](=O)[O-])c1` (centres unmarked) [nicardipine] has an IC50 [4] of 100 nM and an IC50 [3, 6] of 3000 nM.
For `CCOC(=O)C1=C(C)NC(C)=C(C(=O)OC)C1c1cccc([N+](=O)[O-])c1` (centres unmarked) [nitrendipine], the IC50 [3, 6] was 2000 nM.
In the case of `c1cnc2c(c1)ccc1cccnc12` [o-phenanthroline], the “NT Binding Assay” value [1] is given as “+” and the Anti-cancer [2] is given as “+”.
With `Cc1ncc(CO)c(CO)c1O` [pyridoxine] the “Effect on NT binding” value [1, 5] was “not much affected” and the “Effect on NT binding in PC3 cells” value ([1]; used at 20-180 μM) was “ineffective”.
With `Cc1cc2nc3c(=O)[nH]c(=O)nc-3n(C[C@H](O)[C@H](O)[C@H](O)CO)c2cc1C` [riboflavin] the “Effect on NT binding” value [1, 5] was “not much affected” and the “Effect on NT binding in PC3 cells” value ([1]; used at 20-180 μM) was “ineffective”.
In the case of `C=C(C)[C@H]1Cc2c(ccc3c2O[C@@H]2COc4cc(OC)c(OC)cc4[C@@H]2C3=O)O1` [rotenone], the “NT Binding Assay” value [1] is given as “+” and the Anti-cancer [2] is given as “+”.
In the case of `C[C@@H]1O[C@@H](OC[C@H]2O[C@@H](Oc3c(-c4ccc(O)c(O)c4)oc4cc(O)cc(O)c4c3=O)[C@H](O)[C@@H](O)[C@@H]2O)[C@H](O)[C@H](O)[C@H]1O` [rutin], the “Efficacy for altering NT binding to NTR” value ([1]; flavonoids) is reported as “inactive”.
With `[BH4-].[Na+]` [sodium borohydride] the “Effect on NT binding” value [1] was “not much affected” and the “Effect on NT binding in PC3 cells” value ([1]; used at 1-3 mM) was “without effect”.
For `COc1ccc2cc1Oc1ccc(cc1)C[C@H]1c3cc(c(OC)cc3CCN1C)Oc1c(OC)c(OC)cc3c1[C@H](C2)N(C)CC3` [tetrandrine], the “NT Binding Efficacy % increase” value [1] was 35 % increase.
In the case of `Cc1ncc(C[n+]2csc(CCO)c2C)c(N)n1` [thiamine], the “Effect on NT binding” value [1, 5] is reported as “not much affected” and the “Effect on NT binding in PC3 cells” value ([1]; used at 20-180 μM) is reported as “ineffective”.
With `CN1CCN(CCCN2c3ccccc3Sc3ccc(C(F)(F)F)cc32)CC1` [trifluoperazine] the IC50 ([3]; [agent] at which IP formation was decreased by 50%) was greater than 100000 nM, the “IP Formation Efficacy (% decrease)” value [3] was 14 % decrease and the “NT Binding Efficacy % increase” value [1] was 16 % increase.
With `Cc1c(C)c2c(c(C)c1O)CCC(C)(C(=O)O)O2` (centres unmarked) [trolox] the “Effect on NT binding” value [1, 5] was “not much affected” and the “Effect on NT binding in PC3 cells” value ([1]; used at 10-100 μM) was “without effect”.
Work on `CC1=CC(=O)c2ccccc2C1=O` [vitamin K, menadione] yielded an NT binding (% of control) at 180 µM ([1]; 180 μM) of 168 ± 8%.
In the case of `Cc1c(C)c2c(c(C)c1O)CC[C@@](C)(CCC[C@H](C)CCC[C@H](C)CCCC(C)C)O2` [α-tocoferol], the “Effect on NT binding in PC3 cells” value ([1]; used at 20-180 μM) is reported as “ineffective”.
In the case of `CC1=C(/C=C/C(C)=C/C=C/C(C)=C/C=C/C=C(C)/C=C/C=C(C)/C=C/C2=C(C)CCCC2(C)C)C(C)(C)CCC1` [β-carotene], the “Effect on NT binding in PC3 cells” value ([1]; used at 20-180 μM) is reported as “ineffective”.
For (−)-epigallocatechin gallate, the “Effect on NT binding in PC3 cells” value ([1]; used at 10-100 μM) was “without effect”.
In the case of Mevinolin, the “NT Binding Assay” value [1] is given as “+” and the Anti-cancer [2] is given as “+”.
In the case of antimycin A, the Anti-cancer [2] is given as “+”.
For bisindole maleimide, the “NT Binding Assay” value [1] is listed as “+” and the Anti-cancer [2] is listed as “+”.
